Laboratory results as given in patent US20140303092A1 (CHIMERIX, INC., priority 2011, published 2014).

Test: Study HDP-CDV-201: safety and tolerability (adverse events, laboratory abnormalities, discontinuations)
Type: in vivo, human (adult allogeneic HSCT recipients)
Settings: for Subjects with Neutrophils <0.5 GI/L / Subjects with Neutrophils <1.0-0.5 GI/L / Subjects with Neutrophils <1.5-1 GI/L / Subjects with Neutrophils <LLN-1.5 GI/L / Subjects with Platelets <25 GI/L / Subjects with Platelets <50-25 GI/L / Subjects with Platelets <75-50 GI/L / Subjects with Platelets <LLN-75 GI/L / Subjects with Serum Creatinine >1 × ULN-[…] ULN / Subjects with Serum Creatinine >3 × ULN-6 × ULN / Subjects with Serum Creatinine >6 × ULN / Subjects with Serum Creatinine >[…] ULN-3 × ULN / Subjects with WBC <1 GI/L / Subjects with WBC <2-1 GI/L / Subjects with WBC <3-2 GI/L / Subjects with WBC <LLN-3 GI/L / Subjects with Hemoglobin <6.5 g/dL / Subjects with Hemoglobin <8-6.5 g/dL / Subjects with Hemoglobin <10-8 g/dL / Subjects with Hemoglobin <LLN-10 g/dL: any time during therapy; for Subjects Receiving Aldesleukin / Subjects Receiving Blood and Related Products / Subjects Receiving Blood, Whole / Subjects Receiving Filgrastim / Subjects Receiving Granulocyte Colony Stimulating Factor / Subjects Receiving Pegfilgrastim / Subjects Receiving Platelets / Subjects Receiving Red Blood Cells / Subjects Receiving Red Blood Cells, Concentrated / Subjects Receiving Sargramostim: during the Treatment Period; for Cause of death: individual subjects who died
Protocol: Clinical Studies of HDP-CDV were performed and described in detail in the following Examples. For example, HDP-CDV-201 is a placebo-controlled, dose-escalating trial in HSCT CMV (R+) recipients, evaluating the ability of HDP-CDV to prevent or control CMV infection was carried out. Five cohorts were established in which participants or subjects received either placebo or the HDP-CDV orally, in doses ranging from 40 mg weekly (QW) to 200 mg twice weekly (BIW). Subjects who were post-HSCT were enrolled at the time of engraftment and randomized to HDP-CDV or placebo (3 to 1 ratio) and received blinded therapy until approximately 100 day post-transplantation. HDP-CDV doses were 40 mg QW, 100 mg QW, 200 mg QW, 200 mg BIW and 100 mg BIW. Escalation to the next dose was decided by the data monitoring committee after review of the safety data from the previous Cohort. Subjects who developed CMV disease or CMV infection requiring pre-emptive therapy with local standard of care were discontinued from blinded therapy and followed for 4 weeks. Subjects who completed treatment with blinded therapy were followed for 8 weeks post-therapy.
Data from Study HDP-CDV-201 also provided characterization of the safety and tolerability profile of HDP-CDV when administered for the prevention or control of CMV infection in high risk (R^+) post-HSCT adult subjects.
The Safety population (SAFETY) included all randomized subjects who took at least one dose of study treatment. This population was used to summarize safety outcomes based on the treatment actually received, in cases where a subject was treated contrary to the randomization schedule.
The safety and tolerability profile of HDP-CDV, including subject demographics and Baseline characteristics; the AE profile; and laboratory abnormalities of interest were analyzed in the cohorts followed in this investigation.
Subjects completing the treatment period received a full course of study medication; those completing the entire study attended visits through 8 weeks of follow up. Subjects who discontinued treatment may have done so for protocol specified reasons (e.g. development of clinically significant CMV infection requiring preemptive treatment with excluded anti-CMV medications) or for other reasons (e.g., withdrawal, adverse events, loss to follow-up). The disposition of subjects in Study HDP-CDV-201 during the double-blind, placebo-controlled treatment period (through Week 11) is listed by dosing Cohort in TABLE 23.
Adverse events were examined by severity to ensure that all safety signals were identified in this study population. Because of the frequency of events in HSCT recipients, particular attention was given to evaluation of Grade 3 […], 4 (severe), and 5 (fatal) adverse events.
Only those preferred terms for which at least one Grade 3 or higher event was experienced in any treatment group are listed. Cytomegalovirus-related AEs are excluded from this analysis.
HDP-CDV is a lipid conjugate of CDV. Because CDV is known to have adverse effects on renal function and bone marrow, decreased GFR and persistent neutropenia were identified as AEs of special interest. Key renal and hematological (TABLE 30) laboratory parameters were measured and listed below by Study HDP-CDV-201 treatment groups. TABLE 30 includes abnormal levels of serum creatinine, neutrophils, platelets, WBCs, and hemoglobin and includes data at Screening and during the treatment period.
A common metric for unit based dosing of medications is by weight (mg/kg). When the distribution of weights was examined for all subjects participating in the study, the median was 78 kg and the lower 25th percentile weight was approximately 65 kg, which translates to a cut-off of ˜3 mg/kg for a 200 mg total weekly dose. Based upon this approach, a cut-off of 3 mg/kg was used to assess the frequency of diarrhea and associated GI AEs reported for the subjects in Cohorts 3 or 4a (TABLE 40).

CCCCCCCCCCCCCCCCOCCCOP(=O)(O)COC(CO)Cn1ccc(N)nc1=O (stereo not shown) [HDP-CDV]
Subjects with Neutrophils <0.5 GI/L (100 mg QW): 3 (11.1%)
Subjects with Neutrophils <1.0-0.5 GI/L (100 mg QW): 2 (7.4%)
Subjects with Neutrophils <1.5-1 GI/L (100 mg QW): 9 (33.3%)
Subjects with Neutrophils <LLN-1.5 GI/L (100 mg QW): 1 (3.7%)
Subjects with Platelets <25 GI/L (100 mg QW): 4 (14.8%)
Subjects with Platelets <50-25 GI/L (100 mg QW): 6 (22.2%)
Subjects with Platelets <75-50 GI/L (100 mg QW): 6 (22.2%)
Subjects with Platelets <LLN-75 GI/L (100 mg QW): 7 (25.9%)
Subjects with Serum Creatinine >1 × ULN-[…] ULN (100 mg QW): 16 (59.3%)
Subjects with Serum Creatinine >3 × ULN-6 × ULN (100 mg QW): 0
Subjects with Serum Creatinine >6 × ULN (100 mg QW): 0
Subjects with Serum Creatinine >[…] ULN-3 × ULN (100 mg QW): 5 (18.5%)
Subjects with WBC <1 GI/L (100 mg QW): 3 (11.1%)
Subjects with WBC <2-1 GI/L (100 mg QW): 4 (14.8%)
Subjects with WBC <3-2 GI/L (100 mg QW): 6 (22.2%)
Subjects with WBC <LLN-3 GI/L (100 mg QW): 4 (14.8%)
Subjects with Hemoglobin <6.5 g/dL (200 mg BIW): 0
Subjects with Hemoglobin <8-6.5 g/dL (200 mg BIW): 2 (7.1%)
Subjects with Hemoglobin <10-8 g/dL (200 mg BIW): 12 (42.9%)
Subjects with Hemoglobin <LLN-10 g/dL (200 mg BIW): 12 (42.9%)
Subjects with Neutrophils <0.5 GI/L (200 mg BIW): 0
Subjects with Neutrophils <1.0-0.5 GI/L (200 mg BIW): 4 (14.3%)
Subjects with Neutrophils <1.5-1 GI/L (200 mg BIW): 7 (25.0%)
Subjects with Neutrophils <LLN-1.5 GI/L (200 mg BIW): 3 (10.7%)
Subjects with Platelets <25 GI/L (200 mg BIW): 8 (28.6%)
Subjects with Platelets <50-25 GI/L (200 mg BIW): 8 (28.6%)
Subjects with Platelets <75-50 GI/L (200 mg BIW): 2 (7.1%)
Subjects with Platelets <LLN-75 GI/L (200 mg BIW): 6 (21.4%)
Subjects with Serum Creatinine >1 × ULN-[…] ULN (200 mg BIW): 11 (37.9%)
Subjects with Serum Creatinine >3 × ULN-6 × ULN (200 mg BIW): 0
Subjects with Serum Creatinine >6 × ULN (200 mg BIW): 0
Subjects with Serum Creatinine >[…] ULN-3 × ULN (200 mg BIW): 1 (3.4%)
Subjects with WBC <1 GI/L (200 mg BIW): 2 (7.1%)
Subjects with WBC <2-1 GI/L (200 mg BIW): 5 (17.9%)
Subjects with WBC <3-2 GI/L (200 mg BIW): 9 (32.1%)
Subjects with WBC <LLN-3 GI/L (200 mg BIW): 3 (10.7%)
Subjects with Hemoglobin <6.5 g/dL (200 mg QW): 0
Subjects with Hemoglobin <8-6.5 g/dL (200 mg QW): 5 (13.2%)
Subjects with Hemoglobin <10-8 g/dL (200 mg QW): 19 (50.0%)
Subjects with Hemoglobin <LLN-10 g/dL (200 mg QW): 13 (34.2%)
Subjects with Neutrophils <0.5 GI/L (200 mg QW): 2 (5.3%)
Subjects with Neutrophils <1.0-0.5 GI/L (200 mg QW): 7 (18.4%)
Subjects with Neutrophils <1.5-1 GI/L (200 mg QW): 11 (28.9%)
Subjects with Neutrophils <LLN-1.5 GI/L (200 mg QW): 1 (2.6%)
Subjects with Platelets <25 GI/L (200 mg QW): 7 (18.4%)
Subjects with Platelets <50-25 GI/L (200 mg QW): 13 (34.2%)
Subjects with Platelets <75-50 GI/L (200 mg QW): 7 (18.4%)
Subjects with Platelets <LLN-75 GI/L (200 mg QW): 7 (18.4%)
Subjects with Serum Creatinine >1 × ULN-[…] ULN (200 mg QW): 16 (42.1%)
Subjects with Serum Creatinine >3 × ULN-6 × ULN (200 mg QW): 0
Subjects with Serum Creatinine >6 × ULN (200 mg QW): 0
Subjects with Serum Creatinine >[…] ULN-3 × ULN (200 mg QW): 2 (5.3%)
Subjects with WBC <1 GI/L (200 mg QW): 1 (2.6%)
Subjects with WBC <2-1 GI/L (200 mg QW): 13 (34.2%)
Subjects with WBC <3-2 GI/L (200 mg QW): 7 (18.4%)
Subjects with WBC <LLN-3 GI/L (200 mg QW): 6 (15.8%)
drug induced liver injury (DILI) (course of the study): No case of drug induced liver injury (DILI) clearly attributable to HDP-CDV
Subjects Receiving Aldesleukin (40 mg QW): 0
Subjects Receiving Blood and Related Products (40 mg QW): 1 (4.0%)
Subjects Receiving Blood, Whole (40 mg QW): 0
Subjects Receiving Filgrastim (40 mg QW): 4 (16.0%)
Subjects Receiving Granulocyte Colony Stimulating Factor (40 mg QW): 0
Subjects Receiving Pegfilgrastim (40 mg QW): 0
Subjects Receiving Platelets (40 mg QW): 5 (20.0%)
Subjects Receiving Red Blood Cells (40 mg QW): 0
Subjects Receiving Red Blood Cells, Concentrated (40 mg QW): 2 (8.0%)
Subjects Receiving Sargramostim (40 mg QW): 0
Subjects Receiving Aldesleukin (100 mg BIW): 0
Subjects Receiving Blood and Related Products (100 mg BIW): 0
Subjects Receiving Blood, Whole (100 mg BIW): 0
Subjects Receiving Filgrastim (100 mg BIW): 11 (22.0%)
Subjects Receiving Granulocyte Colony Stimulating Factor (100 mg BIW): 0
Subjects Receiving Pegfilgrastim (100 mg BIW): 2 (4.0%)
Subjects Receiving Platelets (100 mg BIW): 6 (12.0%)
Subjects Receiving Red Blood Cells (100 mg BIW): 3 (6.0%)
Subjects Receiving Red Blood Cells, Concentrated (100 mg BIW): 6 (12.0%)
Subjects Receiving Sargramostim (100 mg BIW): 0
Subjects Receiving Aldesleukin (100 mg QW): 0
Subjects Receiving Blood and Related Products (100 mg QW): 0
Subjects Receiving Blood, Whole (100 mg QW): 1 (3.7%)
Subjects Receiving Filgrastim (100 mg QW): 4 (14.8%)
Subjects Receiving Granulocyte Colony Stimulating Factor (100 mg QW): 0
Subjects Receiving Pegfilgrastim (100 mg QW): 0
Subjects Receiving Platelets (100 mg QW): 3 (11.1%)
Subjects Receiving Red Blood Cells (100 mg QW): 2 (7.4%)
Subjects Receiving Red Blood Cells, Concentrated (100 mg QW): 3 (11.1%)
Subjects Receiving Sargramostim (100 mg QW): 0
Subjects Receiving Aldesleukin (200 mg BIW): 0
Subjects Receiving Blood and Related Products (200 mg BIW): 0
Subjects Receiving Blood, Whole (200 mg BIW): 0
Subjects Receiving Filgrastim (200 mg BIW): 5 (16.7%)
Subjects Receiving Granulocyte Colony Stimulating Factor (200 mg BIW): 1 (3.3%)
Subjects Receiving Pegfilgrastim (200 mg BIW): 1 (3.3%)
Subjects Receiving Platelets (200 mg BIW): 6 (20.0%)
Subjects Receiving Red Blood Cells (200 mg BIW): 4 (13.3%)
Subjects Receiving Red Blood Cells, Concentrated (200 mg BIW): 5 (16.7%)
Subjects Receiving Sargramostim (200 mg BIW): 0
Subjects Receiving Aldesleukin (200 mg QW): 0
Subjects Receiving Blood and Related Products (200 mg QW): 0
Subjects Receiving Blood, Whole (200 mg QW): 0
Subjects Receiving Filgrastim (200 mg QW): 11 (28.2%)
Subjects Receiving Granulocyte Colony Stimulating Factor (200 mg QW): 1 (2.6%)
Subjects Receiving Pegfilgrastim (200 mg QW): 1 (2.6%)
Subjects Receiving Platelets (200 mg QW): 6 (15.4%)
Subjects Receiving Red Blood Cells (200 mg QW): 3 (7.7%)
Subjects Receiving Red Blood Cells, Concentrated (200 mg QW): 6 (15.4%)
Subjects Receiving Sargramostim (200 mg QW): 1 (2.6%)
relation of deaths to study drug (entire study duration): None of the deaths were considered by the Investigators as related to HDP-CDV
Cause of death (dose 100 mg BIW): Gut GVHD
Cause of death (dose 200 mg BIW): GI bleed
average increase in ALT from Baseline at time of maximum ALT increase (range across cohorts): 1.53 to 3.55 fold
nephrotoxicity or myelotoxicity (regardless of dose and dosing frequency): no indication of nephrotoxicity or myelotoxicity
